Source: patent US20230183237A1, “COMPETITIVE AND NONCOMPETITIVE INHIBITORS OF THE MUSCARINIC ACETYLCHOLINE RECEPTOR M5” (Vanderbilt University, priority 2020, published 2023)

Target: T1, hM5 (Homo sapiens, UniProt P08912)
T1 construct: expressed in transfected cells
T1 sequence (P08912 1-532): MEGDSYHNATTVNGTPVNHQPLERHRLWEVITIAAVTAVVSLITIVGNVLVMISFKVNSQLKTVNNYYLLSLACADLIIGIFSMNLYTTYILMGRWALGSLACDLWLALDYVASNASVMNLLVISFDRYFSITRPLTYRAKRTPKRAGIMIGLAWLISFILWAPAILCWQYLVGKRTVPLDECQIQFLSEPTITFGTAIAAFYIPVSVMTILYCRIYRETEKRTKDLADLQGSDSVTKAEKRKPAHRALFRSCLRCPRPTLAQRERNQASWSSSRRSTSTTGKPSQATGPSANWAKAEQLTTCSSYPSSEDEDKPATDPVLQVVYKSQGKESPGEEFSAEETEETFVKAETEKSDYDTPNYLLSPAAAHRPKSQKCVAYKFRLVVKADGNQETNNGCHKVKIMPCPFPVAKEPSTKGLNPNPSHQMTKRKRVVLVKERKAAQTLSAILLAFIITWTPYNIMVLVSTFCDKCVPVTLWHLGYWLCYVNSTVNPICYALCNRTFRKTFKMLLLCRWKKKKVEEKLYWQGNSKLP
Test: Calcium mobilization concentration-response (IC50 vs EC80 acetylcholine), CHO hM5
Type: cell-based
Conditions: CELL LINE hM5; calcium mobilization, EC80 acetylcholine addition; read-out: IC50
Procedure, shortened: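 CHO cells stably expressing hM5, dye-loaded, in HBSS/20 mM HEPES/2.5 mM probenecid, pH 7.4. Compounds were pre-incubated 140 s before an EC80 acetylcholine challenge, with calcium flux read kinetically.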

| SMILES | IC50 [nM] |
| --- | --- |
| Cc1cc(C#N)cnc1C1CCN(S(=O)(=O)c2ccc3c(c2)CCO3)CC1 [Compound 218, 6-(1-((2,3-dihydrobenzofuran-5-yl)sulfonyl)piperidin-4-yl)-5-methylnicotinonitrile] | > 10000 |
| Cc1cc2ncnn2cc1C1CCN(S(=O)(=O)c2cnc3n2CCC3)CC1 [Compound 219, 6-(1-((6,7-dihydro-5H-pyrrolo[1,2-a]imidazol-3-yl)sulfonyl)piperidin-4-yl)-7-methyl-[1,2,4]triazolo[1,5-a]pyridine] | > 10000 |
| Cc1cc2ncnn2cc1C1CCN(S(=O)(=O)c2c(C)nn(C)c2C(F)(F)F)CC1 [Compound 220, 6-(1-((1,3-dimethyl-5-(trifluoromethyl)-1H-pyrazol-4-yl)sulfonyl)piperidin-4-yl)-7-methyl-[1,2,4]triazolo[1,5-a]pyridine] | 38 |
| Cc1cn2ncnc2cc1C1CCN(S(=O)(=O)c2cnn(C)c2C)CC1 [Compound 222, 7-(1-((1,5-Dimethyl-1H-pyrazol-4-yl)sulfonyl)piperidin-4-yl)-6-methyl-[1,2,4]triazolo[1,5-a]pyridine] | 276 |
| Cc1ncc(S(=O)(=O)N2CC=C(c3cc4ncnn4cc3Cl)CC2)n1C [Compound 223, 6-chloro-7-(1-((1,2-dimethyl-1H-imidazol-5-yl)sulfonyl)-1,2,3,6-tetrahydropyridin-4-yl)-[1,2,4]triazolo[1,5-a]pyridine] | 660 |
| Cc1ncc(S(=O)(=O)N2CC=C(c3cn4ncnc4cc3Cl)CC2)n1C [Compound 224, 7-chloro-6-(1-((1,2-dimethyl-1H-imidazol-5-yl)sulfonyl)-1,2,3,6-tetrahydropyridin-4-yl)-[1,2,4]triazolo[1,5-a]pyridine] | 12 |
| Cc1sc(C#N)nc1C1CCN(S(=O)(=O)c2cnn(C)c2C)CC1 [Compound 225, 4-(1-((1,5-dimethyl-1H-pyrazol-4-yl)sulfonyl)piperidin-4-yl)-5-methylthiazole-2-carbonitrile] | > 10000 |
| Cc1sc(C#N)nc1C1CCN(S(=O)(=O)c2ccc3c(c2)CCO3)CC1 [Compound 226] | 1400 |
| Cc1nn(C)c(C(F)(F)F)c1S(=O)(=O)N1CCC(c2cn3ncnc3cc2F)CC1 [Compound 227, 6-(1-((1,3-dimethyl-5-(trifluoromethyl)-1H-pyrazol-4-yl)sulfonyl)piperidin-4-yl)-7-fluoro-[1,2,4]triazolo[1,5-a]pyridine] | 2100 |
| Cc1nn(C)c(Cl)c1S(=O)(=O)N1CCC(c2cn3ncnc3cc2F)CC1 [Compound 228, 6-(1-((5-chloro-1,3-dimethyl-1H-pyrazol-4-yl)sulfonyl)piperidin-4-yl)-7-fluoro-[1,2,4]triazolo[1,5-a]pyridine] | 125 |
| Cc1c(S(=O)(=O)N2CCC(c3cn4ncnc4cc3F)CC2)cnn1C(F)F [Compound 230, 6-(1-((1-(difluoromethyl)-5-methyl-1H-pyrazol-4-yl)sulfonyl)piperidin-4-yl)-7-fluoro-[1,2,4]triazolo[1,5-a]pyridine] | > 10000 |
| Cn1ncc(S(=O)(=O)N2CCC(c3cn4ncnc4cc3F)CC2)c1C(F)F [Compound 231, 6-(1-((5-(difluoromethyl)-1-methyl-1H-pyrazol-4-yl)sulfonyl)piperidin-4-yl)-7-fluoro-[1,2,4]triazolo[1,5-a]pyridine] | 176 |
| O=S(=O)(c1cnn2c1CCC2)N1CCC(c2cn3ncnc3cc2F)CC1 [Compound 232, 6-(1-((5,6-dihydro-4H-pyrrolo[1,2-b]pyrazol-3-yl)sulfonyl)piperidin-4-yl)-7-fluoro-[1,2,4]triazolo[1,5-a]pyridine] | 26 |
| O=S(=O)(c1cnc2n1CCC2)N1CCC(c2cn3ncnc3cc2F)CC1 [Compound 233, 6-(1-((6,7-dihydro-5H-pyrrolo[1,2-a]imidazol-3-yl)sulfonyl)piperidin-4-yl)-7-fluoro-[1,2,4]triazolo[1,5-a]pyridine] | > 10000 |
| Cc1ncc(S(=O)(=O)N2CCC(c3cn4ncnc4cc3F)CC2)n1C [Compound 234, 6-(1-((1,2-dimethyl-1H-imidazol-5-yl)sulfonyl)piperidin-4-yl)-7-fluoro-[1,24]triazolo[1,5-a]pyridine] | 407 |
| Cc1nc(C)c(S(=O)(=O)N2CCC(c3cn4ncnc4cc3F)CC2)s1 [Compound 235, 5-((4-(7-fluoro-[1,2,4]triazolo[1,5-a]pyridin-6-yl)piperidin-1-yl)sulfonyl)-2,4-dimethylthiazole] | > 10000 |
| O=S(=O)(c1cnn2c1CCCC2)N1CCC(c2cn3ncnc3cc2F)CC1 [Compound 237, 7-fluoro-6-(1-((4,5,6,7-tetrahydropyrazolo[1,5-a]pyridin-3-yl)sulfonyl)piperidin-4-yl)-[1,2,4]triazolo[1,5-a]pyridine] | 33 |
| Cc1cc2ncnn2cc1C1CCN(S(=O)(=O)c2cnn3c2CCCC3)CC1 [Compound 238, 7-methyl-6-(1-((4,5,6,7-tetrahydropyrazolo[1,5-a]pyridin-3-yl)sulfonyl)piperidin-4-yl)-[1,2,4]triazolo[1,5-a]pyridine] | 6 |
| Cc1cc(C#N)ncc1C1=CCN(S(=O)(=O)c2cnn(C)c2C)CC1 [Compound 239, 1′-((1,5-dimethyl-1H-pyrazol-4-yl)sulfonyl)-4-methyl-1′,2′,3′,6′-tetrahydro-[3,4′-bipyridine]-6-carbonitrile] | > 10000 |
| Cc1cc(C#N)ncc1C1=CCN(S(=O)(=O)c2ccc3c(c2)CCO3)CC1 [Compound 240, 1′-((2,3-dihydrobenzofuran-5-yl)sulfonyl)-4-methyl-1′,2′,3′,6-tetrahydro-[3,4′-bipyridine]-6-carbonitrile] | > 10000 |
| O=S(=O)(c1cnn2c1CCCC2)N1CC=C(c2cc3ncnn3cc2Cl)CC1 [Compound 241, 6-chloro-7-(1-((4,5,6,7-tetrahydropyrazolo[1,5-a]pyridin-3-yl)sulfonyl)-1,2,3,6-tetrahydropyridin-4-yl)-[1,2,4]triazolo[1,5-a]pyridine] | 212 |
| O=S(=O)(c1cnn2c1CCCC2)N1CC=C(c2cn3ncnc3cc2Cl)CC1 [Compound 242, 7-chloro-6-(1-((4,5,6,7-tetrahydropyrazolo[1,5-a]pyridin-3-yl)sulfonyl)-1,2,3,6-tetrahydropyridin-4-yl)-[1,2,4]triazolo[1,5-a]pyridine] | 5 |
| Cc1c(S(=O)(=O)N2CC=C(c3cnc4ncnn4c3C)CC2)cnn1C [Compound 243, 6-(1-((1,5-dimethyl-1H-pyrazol-4-yl)sulfonyl)-1,2,3,6-tetrahydropyridin-4-yl)-7-methyl-[1,2,4]triazolo[1,5-a]pyrimidine] | > 10000 |
| Cc1c(C2=CCN(S(=O)(=O)c3ccc4c(c3)CCO4)CC2)cnc2ncnn12 [Compound 244, 6-(1-((2,3-dihydrobenzofuran-5-yl)sulfonyl)-1,2,3,6-tetrahydropyridin-4-yl)-7-methyl-[1,2,4]triazolo[1,5-a]pyrimidine] | > 10000 |
| Cc1ncc(S(=O)(=O)N2CCC(F)(c3cn4ncnc4cc3C)CC2)s1 [Compound 245, 5-((4-fluoro-4-(7-methyl-[1,2,4]triazolo[1,5-a]pyridin-6-yl)piperidin-1-yl)sulfonyl)-2-methylthiazole] | > 10000 |
| Cc1cc2nccn2nc1C1CCN(S(=O)(=O)c2cnn3c2CCC3)CC1 [Compound 246, 6-(1-((5,6-dihydro-4H-pyrrolo[1,2-b]pyrazol-3-yl)sulfonyl)piperidin-4-yl)-7-methylimidazo[1,2-b]pyridazine] | 17 |
